Laboratory results from patent US4469689A, “Sulfonate containing ester prodrugs of corticosteroids” (The Upjohn Company, priority 1983, dated 1984).
Structures can show the parent of a compound that is named as a salt.

Key:
mice = conditions: M. Kawamura et al., Yakugaku Zasshi, 91, 871 (1971); cited from earlier work
[1] = base catalyzed hydrolysis rate in concentrated versus dilute solution; assay type: physicochemical; conditions: 0.267 M vs 5×10^-4 M
From the text: The actual shelf-life of formulations of the above compounds would be expected to differ fom the above estimates for two reasons: (1) The solubility of the parent corticosteroid formed on hydrolysis may be exceeded prior to 10% degradation of the ester. Micelle formation by the intact prodrugs of Formula I results in solubilization of free corticosteroid thereby prolonging shelf-life. The degree of solubilization varies with the ester concentration, nature of the pro-moiety, and the structure of the corticosteroid. (2) Micelle formation by the intact prodrug in concentrated solutions results in stabilization of the ester linkage toward base catalyzed hydrolysis. For example, the base catalyzed hydrolysis rate in a 0.267 M solution of the compound of Example 1 is less than one-seventh the rate in a 5×10^-4 M solution.

[2] = hydrolysis of dilute aqueous solutions, t90% estimated from hydrolysis rate constants at 25° C. (Table I); assay type: physicochemical; conditions: pH 4.75 (pH of optimum stability), dilute aqueous solution
Method: From the hydrolysis rate constants determined at 25° C. at various pH vlaues for dilute aqueous solutions of the compounds of the invention, estimates of t90% (time for 10% hydrolysis) may be calculated.

[3] = background statement; cited from earlier work

## C[C@]12CCC(=O)C=C1CC[C@@H]1[C@@H]2[C@@H](O)C[C@@]2(C)[C@H]1CC[C@]2(O)C(=O)COS(=O)(=O)O [21-sulfate of hydrocortisone]
mice
  activity in mice: inactive

## C[C@H]1C[C@@H]2[C@H]([C@@H](O)C[C@@]3(C)[C@H]2CC[C@]3(O)C(=O)COC(=O)CCCCCS(=O)(=O)O)[C@@]2(C)C=CC(=O)C=C12 [Example 1, 6α-Methylprednisolone, 21-(6-sulfohexanoate), sodium salt]
[1]
  base catalyzed hydrolysis rate in a 0.267 M solution relative to the rate in a 5×10^-4 M solution: less than one-seventh
[2]
  t90% (time for 10% hydrolysis): 2.7 years

## C[C@H]1C[C@@H]2[C@H]([C@@H](O)C[C@@]3(C)[C@H]2CC[C@]3(O)C(=O)COC(=O)CCCCCCCCCCS(=O)(=O)O)[C@@]2(C)C=CC(=O)C=C12 [Example 2, 6α-Methylprednisolone, 21-(11-sulfohendecanoate), sodium salt]
[2]
  t90% (time for 10% hydrolysis): 3.0 years

## C[C@]12C=CC(=O)C=C1CC[C@@H]1[C@@H]2C(=O)C[C@@]2(C)[C@H]1CC[C@]2(O)C(=O)CO [prednisone]
[3]
  water solubility: generally poorly water soluble
